Test results published in patent US20070160531A1 (priority 1995, published 2007).

Test system: Rat Lung
Conditions: in vivo, iv

## ^3H-daunomycin
  % in lung (total drug in the lung as a percentage of the original dose): 0.65%
  % inj/g tissue: 0.63 % inj/g
